Experimental findings from ChEMBL document CHEMBL1128616, “A pair of new apotirucallane triterpenes, meliavolkensins A and B, from Melia volkensii (Meliaceae)” (1995) are described below.

Type in all cases: functional
Assay [1] deals with HT-29. The assay is described as follows: Compound was tested for its cytotoxic activity in MTT assay against HT-29 cell line (human colon adenocarcinoma). Particulars: read-out: ED50 (the source's name). (Tetrazolium dyes change colour on reduction, which living cells bring about.)
Assay [2] relates to A549. The assay is described as follows: Compound was tested for its cytotoxic activity in MTT assay against A-549 cell line (human lung carcinoma). Particulars: read-out: ED50 (the source's name).
The test system of assay [3] is Artemia. The assay can be described thus: Compound was tested for its cytotoxic activity by brine shrimp lethality test.
The subject of assay [4] is MCF9. The assay is described as follows: Compound was tested for its cytotoxic activity in MTT assay against MCF-9 cell line (human breast carcinoma). The settings on record: read-out: ED50 (the source's name).

For orientation: LC50 means the concentration that kills 50% of the test population. Read a low LC50 as a more lethal substance.

≈ marks a conversion by molar mass, not a printed value.

Consider `CO[C@@]1(C(C)(C)O)CC[C@@H]([C@@H]2CC=C3[C@@]4(C)C(CC[C@]32C)[C@]2(C)C(C[C@H]4OC(C)=O)C(C)(C)C(OC(=O)c3ccccc3)C[C@@H]2OC(C)=O)CO1` (stereo partly specified), for which the EC50 turned out to be 0.25 µg/mL (≈ 0.353 µM) in assay [1], 10.6 µg/mL (≈ 15 µM) in assay [2] and 2.02 µg/mL (≈ 2.85 µM) in assay [4]. The compound further returned an LC50 in assay [3] of 89.3 µg/mL (≈ 126 µM).

`CO[C@]1(C(C)(C)O)CC[C@@H]([C@@H]2CC=C3[C@@]4(C)C(CC[C@]32C)[C@]2(C)C(C[C@H]4OC(C)=O)C(C)(C)C(OC(=O)c3ccccc3)C[C@@H]2OC(C)=O)CO1` (stereo partly specified): the results for the EC50 in assay [1], in assay [2] and in assay [4] were 0.49 µg/mL (≈ 0.691 µM), 13.3 µg/mL (≈ 18.7 µM) and 3.06 µg/mL (≈ 4.32 µM), respectively. Further, in assay [3], the LC50 was 107 µg/mL (≈ 150 µM).

For `COc1cccc2c1C(=O)c1c(O)c3c(c(O)c1C2=O)C[C@@](O)(C(=O)CO)C[C@@H]3O[C@H]1C[C@H](N)[C@H](O)[C@H](C)O1` [DOXORUBICIN], the EC50 in assay [1] was 0.0261 µg/mL (≈ 0.048 µM); in assay [2], 0.00844 µg/mL (≈ 0.0155 µM); in assay [4], 0.0673 µg/mL (≈ 0.124 µM).
